Assay results taken from the NIST ThermoML archive (doi:10.1021/je500977g).
± gives the expanded uncertainty stated by the source.

How the values were obtained:
[1] = mn = molality of the nth substance listed, in mol/kg; settings: Liquid, m2 = 0
[2] = Liquid, Vibrating tube method

O [water] + C[N+](C)(C)[O-]
mass density [kg/m3], [1]
Settings | 278.15 K | 288.15 K | 298.15 K | 308.15 K | 323.15 K
101 kPa, Vibrating tube method | 999.96 ± 0.04 | – | – | – | 988.03 ± 0.05
10000 kPa, Constant-volume piezometry | 1004.78 ± 0.15 | 1003.67 ± 0.16 | 1001.47 ± 0.17 | 998.36 ± 0.18 | 992.31 ± 0.19
25000 kPa, Constant-volume piezometry | 1011.88 ± 0.25 | 1010.42 ± 0.26 | 1007.99 ± 0.27 | 1004.75 ± 0.28 | 998.61 ± 0.3
50000 kPa, Constant-volume piezometry | 1023.2 ± 0.45 | 1021.21 ± 0.46 | 1018.44 ± 0.47 | 1014.97 ± 0.48 | 1008.68 ± 0.5
75000 kPa, Constant-volume piezometry | 1033.92 ± 0.66 | 1031.47 ± 0.67 | 1028.38 ± 0.68 | 1024.71 ± 0.69 | 1018.27 ± 0.7
100000 kPa, Constant-volume piezometry | 1044.08 ± 0.87 | 1041.23 ± 0.88 | 1037.86 ± 0.89 | 1034 ± 0.9 | 1027.42 ± 0.91

O [water]
mass density [kg/m3], [2]
Settings | 101 kPa | 10000 kPa | 25000 kPa | 50000 kPa | 75000 kPa | 100000 kPa
278.15 K | 999.96 ± 0.04 | 1004.78 ± 0.15 | 1011.88 ± 0.25 | 1023.2 ± 0.45 | 1033.92 ± 0.66 | 1044.08 ± 0.87
288.15 K | – | 1003.67 ± 0.16 | 1010.42 ± 0.26 | 1021.21 ± 0.46 | 1031.47 ± 0.67 | 1041.23 ± 0.88
298.15 K | – | 1001.47 ± 0.17 | 1007.99 ± 0.27 | 1018.44 ± 0.47 | 1028.38 ± 0.68 | 1037.86 ± 0.89
308.15 K | – | 998.36 ± 0.18 | 1004.75 ± 0.28 | 1014.97 ± 0.48 | 1024.71 ± 0.69 | 1034 ± 0.9
323.15 K | 988.03 ± 0.05 | 992.31 ± 0.19 | 998.61 ± 0.3 | 1008.68 ± 0.5 | 1018.27 ± 0.7 | 1027.42 ± 0.91
